Test results published in patent publication US20240208992A1, “MACROCYCLES AS CFTR MODULATORS” (Idorsia Pharmaceuticals Ltd, priority 2021, published 2024).
pEC50: −log10 of the molar value.

Target: human F508del-CFTR (Homo sapiens, UniProt P13569, DEL508-508)
Experiment: F508del-CFTR cell surface expression (corrector activity), DiscoveRx ß-galactosidase complementation chemiluminescence assay in recombinant U2OS cell line;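 note: U2OS cells co-expressing ProLink-tagged F508del-CFTR and a membrane-anchored enzyme acceptor, where more surface CFTR restores β-galactosidase activity measured by chemiluminescence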
Details: for pEC50: EC50, F508del-CFTR cell surface expression, U2OS cells, 16h compound incubation, geomean values; for Emax: U2OS, in relation to Emax of corrector lumacaftor (=100%), arithmetic mean values

Sequence of human F508del-CFTR (P13569 with tags, fused parts or gaps DEL508-508): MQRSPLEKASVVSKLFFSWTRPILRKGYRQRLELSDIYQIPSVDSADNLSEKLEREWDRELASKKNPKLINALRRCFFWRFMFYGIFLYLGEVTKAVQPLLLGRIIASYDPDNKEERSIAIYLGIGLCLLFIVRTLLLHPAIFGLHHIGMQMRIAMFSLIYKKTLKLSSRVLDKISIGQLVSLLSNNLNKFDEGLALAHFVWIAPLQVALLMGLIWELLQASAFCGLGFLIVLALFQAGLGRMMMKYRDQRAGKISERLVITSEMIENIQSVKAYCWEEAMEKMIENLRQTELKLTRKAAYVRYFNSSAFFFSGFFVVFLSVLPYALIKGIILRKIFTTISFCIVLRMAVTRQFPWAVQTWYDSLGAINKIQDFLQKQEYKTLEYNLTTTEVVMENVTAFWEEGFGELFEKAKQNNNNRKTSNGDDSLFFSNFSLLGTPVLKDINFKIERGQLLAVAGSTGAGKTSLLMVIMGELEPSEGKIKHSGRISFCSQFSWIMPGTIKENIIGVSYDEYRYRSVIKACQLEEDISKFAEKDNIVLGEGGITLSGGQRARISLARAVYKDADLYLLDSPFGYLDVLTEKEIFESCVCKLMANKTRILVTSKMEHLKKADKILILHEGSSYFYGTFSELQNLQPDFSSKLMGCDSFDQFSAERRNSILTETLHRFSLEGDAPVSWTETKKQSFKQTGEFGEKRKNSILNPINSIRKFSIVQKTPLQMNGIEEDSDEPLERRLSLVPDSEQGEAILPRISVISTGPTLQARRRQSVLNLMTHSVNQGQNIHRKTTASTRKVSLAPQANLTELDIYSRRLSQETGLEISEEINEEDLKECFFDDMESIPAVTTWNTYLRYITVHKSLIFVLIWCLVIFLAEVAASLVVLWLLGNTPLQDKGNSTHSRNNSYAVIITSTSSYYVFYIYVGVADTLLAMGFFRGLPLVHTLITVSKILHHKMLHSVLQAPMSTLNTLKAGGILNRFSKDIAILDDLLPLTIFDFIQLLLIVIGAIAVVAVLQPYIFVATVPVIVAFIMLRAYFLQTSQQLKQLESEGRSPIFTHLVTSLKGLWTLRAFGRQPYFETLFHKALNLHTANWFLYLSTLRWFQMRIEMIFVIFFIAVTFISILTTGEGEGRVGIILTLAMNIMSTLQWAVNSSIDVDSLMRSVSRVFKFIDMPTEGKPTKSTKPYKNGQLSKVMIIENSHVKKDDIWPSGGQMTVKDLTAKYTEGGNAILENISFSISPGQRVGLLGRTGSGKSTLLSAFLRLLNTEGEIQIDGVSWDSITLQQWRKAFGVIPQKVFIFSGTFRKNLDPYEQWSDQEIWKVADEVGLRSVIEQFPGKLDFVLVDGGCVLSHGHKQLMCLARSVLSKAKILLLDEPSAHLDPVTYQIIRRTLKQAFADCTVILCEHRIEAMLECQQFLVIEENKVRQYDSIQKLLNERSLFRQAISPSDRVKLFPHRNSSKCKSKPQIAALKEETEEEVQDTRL

Compound	pEC50	Emax [%]
Cc1cc(CCNC(=O)[C@@H]2CC(=O)N(C)[C@@H](CC(C)C)C(=O)N3CCN(C4CC4)C[C@@H]3C(=O)N[C@H](Cc3ccccc3)COc3cnc4ccccc4c3C(=O)N2)on1 [Example 402, (9S,13S,19aR,22R)-22-benzyl-18-cyclopropyl-13-isobutyl-12-methyl-N-(2-(3-methylisoxazol-5-yl)ethyl)-7,11,14,20-tetraoxo-7,8,9,10,11,12,13,14,17,18,19,19a,20,21,22,23-hexadecahydro-16H-pyrazino[2′,11:6,7][1]oxa[4,7,10,14]tetraazacycloheptadecino[17,16-c]quinoline-9-carboxamide]	6.52	314
Cc1cc(CCNC(=O)[C@@H]2CC(=O)N(C)[C@@H](CC(C)C)C(=O)N3CCN(C4CC4)C[C@H]3C(=O)N[C@H](Cc3ccccc3)COc3cnc4ccccc4c3C(=O)N2)on1 [Example 403, (9S,13S,19aS,22R)-22-benzyl-18-cyclopropyl-13-isobutyl-12-methyl-N-(2-(3-methylisoxazol-5-yl)ethyl)-7,11,14,20-tetraoxo-7,8,9,10,11,12,13,14,17,18,19,19a,20,21,22,23-hexadecahydro-16H-pyrazino[2′,11:6,7][1]oxa[4,7,10,14]tetraazacycloheptadecino[17,16-c]quinoline-9-carboxamide]	6.26	179
CC(C)C[C@H]1C(=O)N2CCN(C3CC3)C[C@@H]2C(=O)N[C@H](Cc2ccccc2)COc2cnc3ccccc3c2C(=O)N[C@H](C(=O)NCCc2nc3c(s2)CCC3)CC(=O)N1C [Example 404, (9S,13S,19aR,22R)-22-benzyl-18-cyclopropyl-N-(2-(5,6-dihydro-4H-cyclopenta[d]thiazol-2-yl)ethyl)-13-isobutyl-12-methyl-7,11,14,20-tetraoxo-7,8,9,10,11,12,13,14,17,18,19,19a,20,21,22,23-hexadecahydro-16H-pyrazino[2′,11:6,7][1]oxa[4,7,10,14]tetraazacycloheptadecino[17,16-c]quinoline-9-carboxamide]	6.80	254
CC(C)C[C@H]1C(=O)N2CCN(C3CC3)C[C@H]2C(=O)N[C@H](Cc2ccccc2)COc2cnc3ccccc3c2C(=O)N[C@H](C(=O)NCCc2nc3c(s2)CCC3)CC(=O)N1C [Example 405, (9S,13S,19aS,22R)-22-benzyl-18-cyclopropyl-N-(2-(5,6-dihydro-4H-cyclopenta[d]thiazol-2-yl)ethyl)-13-isobutyl-12-methyl-7,11,14,20-tetraoxo-7,8,9,10,11,12,13,14,17,18,19,19a,20,21,22,23-hexadecahydro-16H-pyrazino[2′,1′:6,7][1]oxa[4,7,10,14]tetraazacycloheptadecino[17,16-c]quinoline-9-carboxamide]	6.46	171
COc1cccc(CCNC(=O)[C@@H]2CC(=O)N(C)[C@@H](CC(C)C)C(=O)N3CCCC[C@@H]3C(=O)N[C@H](Cc3ccccc3)COc3cc4oc(C)nc4cc3C(=O)N2)c1 [Example 406, (7S,11S,21R,23aR)-21-benzyl-7-isobutyl-N-(3-methoxyphenethyl)-8,16-dimethyl-6,9,13,23-tetraoxo-1,3,4,6,7,8,9,10,11,12,13,20,21,22,23,23a-hexadecahydro-2H-oxazolo[5′,4′:4,5]benzo[1,2-p]pyrido[2,1-f][1]oxa[4,7,10,14]tetraazacycloheptadecine-11-carboxamide]	6.39	173
COc1cccc(CCNC(=O)[C@@H]2CC(=O)N(C)[C@@H](CC(C)C)C(=O)N3CCOC[C@@H]3C(=O)N[C@H](Cc3ccccc3)COc3cc4oc(C)nc4cc3C(=O)N2)c1 [Example 407]	6.16	123
CC(C)C[C@H]1C(=O)N(C)CC(=O)N[C@H](Cc2ccccc2)COc2ccc3c(c2C(=O)N[C@H](C(=O)NCCc2ccc4c(c2)OCO4)CC(=O)N1C)OC(F)(F)O3 [Example 408, (8R,14S,18S)-N-(2-(benzo[d][1,3]dioxol-5-yl)ethyl)-8-benzyl-2,2-difluoro-14-isobutyl-12,15-dimethyl-10,13,16,20-tetraoxo-7,8,9,10,11,12,13,14,15,16,17,18,19,20-tetradecahydro-[1,3]dioxolo[4′,5′:5,6]benzo[1,2-p][1]oxa[4,7,10,14]tetraazacycloheptadecine-18-carboxamide]	6.62	134
COc1cccc(CCNC(=O)[C@@H]2CC(=O)N(C)[C@@H](CC(C)C)C(=O)N(C)CC(=O)N[C@H](Cc3ccccc3)COc3ccc4c(c3C(=O)N2)OC(F)(F)O4)c1 [Example 409, (8R,14S,18S)-8-benzyl-2,2-difluoro-14-isobutyl-N-(3-methoxyphenethyl)-12,15-dimethyl-10,13,16,20-tetraoxo-7,8,9,10,11,12,13,14,15,16,17,18,19,20-tetradecahydro-[1,3]dioxolo[4′,5′:5,6]benzo[1,2-p][1]oxa[4,7,10,14]tetraazacycloheptadecine-18-carboxamide]	6.67	144
Cc1cc(CCNC(=O)[C@@H]2CC(=O)N(C)[C@@H](CC(C)C)C(=O)N(CCC3CCCCC3)CC(=O)N[C@H](Cc3ccccc3)COc3ccc4nc(C)oc4c3C(=O)N2)on1 [Example 410, (8R,14S,18S)-8-benzyl-12-(2-cyclohexylethyl)-14-isobutyl-2,15-dimethyl-N-(2-(3-methylisoxazol-5-yl)ethyl)-10,13,16,20-tetraoxo-7,8,9,10,11,12,13,14,15,16,17,18,19,20-tetradecahydrooxazolo[4′,5′:5,6]benzo[1,2-p][1]oxa[4,7,10,14]tetraazacycloheptadecine-18-carboxamide]	6.89	269
Cc1cc(CCNC(=O)[C@@H]2CC(=O)N(C)[C@@H](CC(C)C)C(=O)N(CCC3CCCCC3)CC(=O)N[C@H](Cc3ccccc3)COc3cnc4c(F)cccc4c3C(=O)N2)on1 [Example 411, (3S,7S,13R)-13-benzyl-9-(2-cyclohexylethyl)-18-fluoro-7-isobutyl-6-methyl-N-(2-(3-methylisoxazol-5-yl)ethyl)-1,5,8,11-tetraoxo-1,2,3,4,5,6,7,8,9,10,11,12,13,14-tetradecahydro-[1]oxa[4,7,10,14]tetraazacycloheptadecino[17,16-c]quinoline-3-carboxamide]	6.86	250
COc1cccc(CCNC(=O)[C@@H]2CC(=O)N(C)[C@@H](CC(C)C)C(=O)N3CCOC[C@@H]3C(=O)N[C@H](Cc3ccccc3)COc3cnc4ccccc4c3C(=O)N2)c1 [Example 412, (9S,13S,19aR,22R)-22-benzyl-13-isobutyl-N-(3-methoxyphenethyl)-12-methyl-7,11,14,20-tetraoxo-7,8,9,10,11,12,13,14,16,17,19,19a,20,21,22,23-hexadecahydro-[1,4]oxazino[3′,4′:6,7][1]oxa[4,7,10,14]tetraazacycloheptadecino[17,16-c]quinoline-9-carboxamide]	6.42	291
COc1cccc(CCNC(=O)[C@@H]2CC(=O)N(C)[C@@H](CC(C)C)C(=O)N3CCOC[C@H]3C(=O)N[C@H](Cc3ccccc3)COc3cnc4ccccc4c3C(=O)N2)c1 [Example 413, (9S,13S,19aS,22R)-22-benzyl-13-isobutyl-N-(3-methoxyphenethyl)-12-methyl-7,11,14,20-tetraoxo-7,8,9,10,11,12,13,14,16,17,19,19a,20,21,22,23-hexadecahydro-[1,4]oxazino[3′,4′:6,7][1]oxa[4,7,10,14]tetraazacycloheptadecino[17,16-c]quinoline-9-carboxamide]	6.25	129
